pIC50: −log10 of the molar value. Read-outs that look alike come from different tables or passages of the source.
What was measured:
[1] = system: Ba/F3 cells expressing EGFR mutations; assay: Cell proliferation assay, Ba/F3 cells expressing EGFR mutations (CellTiter-Glo, 72 hours); type: cell-based; conditions: CellTiter-Glo
Procedure, shortened: (§1)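 Seed Ba/F3 at 5000 cells/well and PC-9 at 500 cells/well (10% FBS RPMI1640); incubate overnight; add compound dilution series; read a G0 plate; incubate; read G3; GI50 from best-fit curve.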

EGFR[T790M/C797S/L858R] = target: T1, EGFR[T790M/C797S/L858R] (Homo sapiens, UniProt P00533, C797S/L858R/T790M); assay: Inhibition of EGFR[T790M/C797S/L858R] biochemical enzymatic activity (HTRF); conditions: EGFR T790M-C797S-L858R, 1 mM ATP, 1 h, room temperature, read-out: IC50 (nM) @T790M- C797S - L858R
T1 construct: purchased Carna Bio
Procedure, shortened: (§2)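 For IC50 determination by four-parameter logistic fit, EDTA-quenched 1 h room-temperature reactions (1 mM ATP, 1 μM TK Substrate-biotin) were read by HTRF. The 665/615 nm emission ratio after 320 nm excitation served as the activity signal.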

EGFR L858R = target: T2, EGFR L858R (Homo sapiens, UniProt P00533, L858R); assay: Inhibition of EGFR L858R biochemical enzymatic activity (HTRF); conditions: 1 mM ATP, 1 h, room temperature, read-out: IC50 (nM) @L858R
T2 construct: purchased Carna Bio
T2 sequence (P00533 25-1210 L858R): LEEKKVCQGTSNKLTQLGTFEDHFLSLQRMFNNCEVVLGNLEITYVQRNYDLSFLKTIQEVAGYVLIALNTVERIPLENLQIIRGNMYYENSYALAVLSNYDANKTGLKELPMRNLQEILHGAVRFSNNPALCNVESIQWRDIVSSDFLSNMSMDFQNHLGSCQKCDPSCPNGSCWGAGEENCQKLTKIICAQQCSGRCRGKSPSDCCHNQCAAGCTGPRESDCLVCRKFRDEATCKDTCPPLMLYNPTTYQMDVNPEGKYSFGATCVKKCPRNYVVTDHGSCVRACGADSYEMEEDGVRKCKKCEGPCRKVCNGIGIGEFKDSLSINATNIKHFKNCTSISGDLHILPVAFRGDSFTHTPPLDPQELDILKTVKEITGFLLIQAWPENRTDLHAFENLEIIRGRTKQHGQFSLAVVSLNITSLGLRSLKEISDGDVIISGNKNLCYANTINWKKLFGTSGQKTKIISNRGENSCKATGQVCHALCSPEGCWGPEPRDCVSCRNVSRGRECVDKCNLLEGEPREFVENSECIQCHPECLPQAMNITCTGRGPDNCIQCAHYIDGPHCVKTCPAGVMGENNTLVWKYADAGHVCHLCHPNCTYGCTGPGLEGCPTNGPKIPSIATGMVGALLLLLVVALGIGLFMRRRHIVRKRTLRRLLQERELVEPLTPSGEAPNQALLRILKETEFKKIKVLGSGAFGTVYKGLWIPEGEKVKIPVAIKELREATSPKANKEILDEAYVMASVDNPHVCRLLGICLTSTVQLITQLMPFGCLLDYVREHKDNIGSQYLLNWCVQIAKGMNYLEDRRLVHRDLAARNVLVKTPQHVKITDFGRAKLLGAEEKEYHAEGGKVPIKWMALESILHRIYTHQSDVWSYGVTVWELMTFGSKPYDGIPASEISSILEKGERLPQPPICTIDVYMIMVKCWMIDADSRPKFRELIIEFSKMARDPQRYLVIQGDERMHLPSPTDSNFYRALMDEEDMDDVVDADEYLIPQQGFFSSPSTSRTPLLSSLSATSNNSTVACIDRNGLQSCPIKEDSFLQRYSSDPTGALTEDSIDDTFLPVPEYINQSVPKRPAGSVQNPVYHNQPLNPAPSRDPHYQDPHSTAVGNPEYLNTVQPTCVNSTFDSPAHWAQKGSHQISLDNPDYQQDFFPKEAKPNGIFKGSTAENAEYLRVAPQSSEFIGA
Procedure, shortened: as §2

PC-9 = assay: Cell proliferation assay, PC-9 cells (CellTiter-Glo, 72 hours); type: cell-based; conditions: PC9 cells, CellTiter-Glo, read-out: PC9 GI50
Procedure, shortened: as §1

EGFR (C797S L858R) = target: T3, EGFR (C797S L858R) (Homo sapiens, UniProt P00533, C797S/L858R); assay: Inhibition of EGFR (C797S L858R) biochemical enzymatic activity (HTRF); conditions: EGFR L858-C797S, 1 mM ATP, 1 h, room temperature, read-out: IC50 (nM) @L858-C797S
T3 construct: purchased signalchem
T3 sequence (P00533 25-1210 C797S/L858R): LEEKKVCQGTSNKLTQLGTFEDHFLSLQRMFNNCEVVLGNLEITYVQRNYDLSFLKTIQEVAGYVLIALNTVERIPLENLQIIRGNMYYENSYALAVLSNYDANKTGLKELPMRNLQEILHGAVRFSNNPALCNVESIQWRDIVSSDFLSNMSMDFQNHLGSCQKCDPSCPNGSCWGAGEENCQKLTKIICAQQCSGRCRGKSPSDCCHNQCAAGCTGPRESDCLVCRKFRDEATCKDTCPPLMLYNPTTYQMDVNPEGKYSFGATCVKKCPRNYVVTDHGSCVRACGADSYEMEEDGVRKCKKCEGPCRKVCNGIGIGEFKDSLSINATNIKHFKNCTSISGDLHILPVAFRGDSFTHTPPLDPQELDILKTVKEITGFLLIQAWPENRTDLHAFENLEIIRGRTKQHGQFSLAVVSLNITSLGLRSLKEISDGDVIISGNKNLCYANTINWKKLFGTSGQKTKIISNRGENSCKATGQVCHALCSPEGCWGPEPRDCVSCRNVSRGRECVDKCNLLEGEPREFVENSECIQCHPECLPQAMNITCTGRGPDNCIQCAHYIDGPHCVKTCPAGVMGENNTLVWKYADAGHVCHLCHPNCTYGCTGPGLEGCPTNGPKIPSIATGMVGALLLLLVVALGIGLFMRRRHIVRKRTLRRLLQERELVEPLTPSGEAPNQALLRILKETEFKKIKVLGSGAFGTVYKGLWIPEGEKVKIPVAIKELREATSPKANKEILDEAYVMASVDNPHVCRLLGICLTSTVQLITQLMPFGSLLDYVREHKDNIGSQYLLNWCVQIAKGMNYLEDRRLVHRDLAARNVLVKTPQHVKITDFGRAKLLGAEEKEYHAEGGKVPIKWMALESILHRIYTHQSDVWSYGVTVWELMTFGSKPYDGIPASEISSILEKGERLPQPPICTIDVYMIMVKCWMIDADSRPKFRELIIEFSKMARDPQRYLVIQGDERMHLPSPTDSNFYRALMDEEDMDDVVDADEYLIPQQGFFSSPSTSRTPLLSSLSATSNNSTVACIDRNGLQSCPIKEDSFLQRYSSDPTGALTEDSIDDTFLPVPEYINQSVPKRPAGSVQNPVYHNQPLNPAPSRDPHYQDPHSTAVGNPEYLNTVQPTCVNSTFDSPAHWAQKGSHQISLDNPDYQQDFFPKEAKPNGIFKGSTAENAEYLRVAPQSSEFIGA
Procedure, shortened: as §2

EGFR (d746-750 C797S) = target: T4, EGFR (d746-750 C797S) (Homo sapiens, UniProt P00533, C797S/DEL746-750); assay: Inhibition of EGFR (d746-750 C797S) biochemical enzymatic activity (HTRF); conditions: EGFR Del19-C797S, 1 mM ATP, 1 h, room temperature, read-out: IC50 (nM) @Del19-C797S
T4 construct: purchased signalchem
T4 sequence (P00533 with tags, fused parts or gaps DEL746-750/C797S limits assumed): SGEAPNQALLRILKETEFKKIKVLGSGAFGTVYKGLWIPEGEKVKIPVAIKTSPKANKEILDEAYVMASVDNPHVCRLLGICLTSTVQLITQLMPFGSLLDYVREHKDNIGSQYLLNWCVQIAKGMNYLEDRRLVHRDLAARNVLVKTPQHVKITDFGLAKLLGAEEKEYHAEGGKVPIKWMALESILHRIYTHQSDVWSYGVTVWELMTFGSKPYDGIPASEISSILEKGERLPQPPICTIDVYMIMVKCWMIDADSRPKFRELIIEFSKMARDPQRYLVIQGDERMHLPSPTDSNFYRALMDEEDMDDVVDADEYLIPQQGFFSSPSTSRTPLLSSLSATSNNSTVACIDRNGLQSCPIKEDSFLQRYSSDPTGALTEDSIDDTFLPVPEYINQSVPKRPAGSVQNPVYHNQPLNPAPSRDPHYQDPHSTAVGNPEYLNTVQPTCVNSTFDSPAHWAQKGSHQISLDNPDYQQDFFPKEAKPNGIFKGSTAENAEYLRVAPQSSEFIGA
Procedure, shortened: as §2

[2] = target: T5, EGFR[T790M/C797S/d746-750] (Homo sapiens, UniProt P00533, C797S/DEL746-750/T790M); assay: Inhibition of EGFR[T790M/C797S/d746-750] biochemical enzymatic activity (HTRF); conditions: EGFR T790M-C797S-Del19, 1 mM ATP, 1 h, room temperature, read-out: IC50 (nM) @T790M - C797S - Del19
T5 construct: purchased Carna Bio
Procedure, shortened: as §2

EGFR Exon19Del/T790M = target: T6, EGFR Exon19Del/T790M (Homo sapiens, UniProt P00533, DEL746-750/T790M); assay: Inhibition of EGFR Exon19Del/T790M biochemical enzymatic activity (HTRF); conditions: EGFR Del19-T790M, 1 mM ATP, 1 h, room temperature, read-out: IC50 (nM) @Del19-T790M
T6 construct: purchased Carna Bio
T6 sequence (P00533 with tags, fused parts or gaps DEL746-750/T790M limits assumed): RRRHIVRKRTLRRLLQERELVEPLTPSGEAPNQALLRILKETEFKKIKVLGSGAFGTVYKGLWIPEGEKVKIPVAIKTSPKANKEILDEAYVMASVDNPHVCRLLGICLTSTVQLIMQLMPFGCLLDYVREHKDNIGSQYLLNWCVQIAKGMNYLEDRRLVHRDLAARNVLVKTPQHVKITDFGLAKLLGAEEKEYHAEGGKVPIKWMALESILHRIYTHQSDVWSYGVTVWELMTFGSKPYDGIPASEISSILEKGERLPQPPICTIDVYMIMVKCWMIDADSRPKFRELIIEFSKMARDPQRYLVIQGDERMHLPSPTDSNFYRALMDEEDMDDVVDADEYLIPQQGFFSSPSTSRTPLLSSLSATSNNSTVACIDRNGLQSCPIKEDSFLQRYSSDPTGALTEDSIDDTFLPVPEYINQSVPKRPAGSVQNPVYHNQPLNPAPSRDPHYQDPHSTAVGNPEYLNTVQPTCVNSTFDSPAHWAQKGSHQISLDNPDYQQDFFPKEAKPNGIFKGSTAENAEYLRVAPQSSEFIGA
Procedure, shortened: as §2

EGFR wild type = target: T7, EGFR wild type (Homo sapiens, UniProt P00533); assay: Inhibition of EGFR wild type biochemical enzymatic activity (HTRF); conditions: EGFR WT, 1 mM ATP, 1 h, room temperature, read-out: IC50 (nM) @WT
T7 construct: purchased Carna Bio
T7 sequence (P00533 25-1210): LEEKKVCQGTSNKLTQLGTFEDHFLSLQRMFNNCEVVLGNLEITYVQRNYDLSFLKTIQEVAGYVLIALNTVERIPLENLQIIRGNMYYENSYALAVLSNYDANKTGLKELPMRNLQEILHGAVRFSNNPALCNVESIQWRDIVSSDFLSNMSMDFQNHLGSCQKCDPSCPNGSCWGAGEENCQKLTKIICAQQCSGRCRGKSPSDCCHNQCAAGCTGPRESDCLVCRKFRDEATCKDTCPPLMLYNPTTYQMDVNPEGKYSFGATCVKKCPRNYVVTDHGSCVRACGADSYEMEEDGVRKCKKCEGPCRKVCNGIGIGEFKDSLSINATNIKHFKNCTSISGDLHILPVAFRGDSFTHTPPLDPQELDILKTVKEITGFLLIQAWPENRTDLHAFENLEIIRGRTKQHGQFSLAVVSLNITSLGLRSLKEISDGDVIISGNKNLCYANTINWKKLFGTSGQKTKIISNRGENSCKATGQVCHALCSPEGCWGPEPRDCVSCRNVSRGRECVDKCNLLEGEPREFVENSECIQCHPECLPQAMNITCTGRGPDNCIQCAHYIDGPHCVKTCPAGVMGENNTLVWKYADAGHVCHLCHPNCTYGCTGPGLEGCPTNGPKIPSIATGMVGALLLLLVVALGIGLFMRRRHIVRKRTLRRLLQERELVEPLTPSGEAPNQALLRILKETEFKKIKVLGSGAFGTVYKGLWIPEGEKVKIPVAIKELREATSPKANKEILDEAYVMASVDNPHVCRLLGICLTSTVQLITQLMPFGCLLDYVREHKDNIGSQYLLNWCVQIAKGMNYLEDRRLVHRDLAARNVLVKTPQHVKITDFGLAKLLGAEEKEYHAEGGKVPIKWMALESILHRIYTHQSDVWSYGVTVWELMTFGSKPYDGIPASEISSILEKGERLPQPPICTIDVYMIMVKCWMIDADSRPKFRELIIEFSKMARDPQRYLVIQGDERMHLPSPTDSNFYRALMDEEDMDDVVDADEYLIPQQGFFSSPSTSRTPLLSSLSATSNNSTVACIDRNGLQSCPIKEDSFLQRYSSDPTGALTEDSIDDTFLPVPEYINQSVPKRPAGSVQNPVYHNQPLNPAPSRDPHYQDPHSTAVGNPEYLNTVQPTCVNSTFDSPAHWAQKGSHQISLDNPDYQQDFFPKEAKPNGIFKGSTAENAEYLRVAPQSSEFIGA
Procedure, shortened: as §2

EGFR Exon19Del = target: T8, EGFR Exon19Del (Homo sapiens, UniProt P00533, DEL746-750); assay: Inhibition of EGFR Exon19Del biochemical enzymatic activity (HTRF); conditions: EGFR Del19, 1 mM ATP, 1 h, room temperature, read-out: IC50 @Del19
T8 construct: purchased Carna Bio
Procedure, shortened: as §2

EGFR L858R/T790M = target: T9, EGFR L858R/T790M (Homo sapiens, UniProt P00533, L858R/T790M); assay: Inhibition of EGFR L858R/T790M biochemical enzymatic activity (HTRF); conditions: EGFR L858R-T790M, 1 mM ATP, 1 h, room temperature, read-out: IC50 (nM) @L858R-T790M
T9 construct: purchased Carna Bio
Procedure, shortened: as §2

A-431 = assay: Cell proliferation GI50, A-431 cells (Table 6); type: cell-based
[3] = BaF3 cells, EGFR DEL19-C797S, read-out: DEL19-C797S/BaF3 GI50
[4] = BaF3 cells, EGFR DEL19-T790-C797S, read-out: DEL19-T790-C797S/BaF3 GI50
[5] = BaF3 cells, EGFR L858R, read-out: L858R/BaF3 GI50
[6] = BaF3 cells, EGFR L858R-C797S, read-out: L858R-C797S/BaF3 GI50
[7] = BaF3 cells, EGFR L858R-T790-C797S, read-out: L858R-T790-C797S/BaF3 GI50
[8] = BaF3 cells, EGFR L858R-T790M, read-out: L858R-T790M/BaF3 GI50
[9] = EGFR DEL19-T790M, read-out: DEL19-T790M GI50
[10] = Mus musculus, BaF3, 72 h, BaF3 cells, EGFR DEL19-C797S, read-out: DEL19-C797S/BaF3 GI50
[11] = Mus musculus, BaF3, 72 h, BaF3 cells, EGFR DEL19-T790-C797S, read-out: DEL19-T790-C797S/BaF3 GI50
[12] = Mus musculus, BaF3, 72 h, BaF3 cells, EGFR L858R, read-out: L858R/BaF3 GI50
[13] = Mus musculus, BaF3, 72 h, BaF3 cells, EGFR L858R-C797S, read-out: L858R-C797S/BaF3 GI50
[14] = Mus musculus, BaF3, 72 h, BaF3 cells, EGFR L858R-T790-C797S, read-out: L858R-T790-C797S/BaF3 GI50
[15] = Mus musculus, BaF3, 72 h, BaF3 cells, EGFR L858R-T790M, read-out: L858R-T790M/BaF3 GI50
[16] = Mus musculus, BaF3, 72 h, EGFR DEL19-T790M, read-out: DEL19-T790M GI50
[17] = Homo sapiens, A-431, A-431 cells

SMILES | GI50 [1, 3] | GI50 [1, 4] | GI50 [1, 5] | GI50 [1, 6] | GI50 [1, 7] | GI50 [1, 8] | GI50 [1, 9] | IC50 (EGFR[T790M/C797S/L858R]) | IC50 (EGFR L858R) | GI50 (PC-9) | IC50 (EGFR (C797S L858R)) | IC50 (EGFR (d746-750 C797S)) | IC50 [2] | IC50 (EGFR Exon19Del/T790M) | IC50 (EGFR wild type) | pIC50 (EGFR Exon19Del) | IC50 (EGFR L858R/T790M) | GI50 [1, 10] | GI50 [1, 11] | GI50 (A-431; [17]) | also measured
Cn1ncc2c1OCCN1CC3CCC(C3)(C1)n1c(nc3ccc(N4CCC(N5CC(F)C5)C4)cc31)NC(=O)c1cc-2c(=O)n(C)c1 (single isomer, unassigned) [Example A94B2, 5-[3-(3-Fluoroazetidin-1-yl)pyrrolidin-1-yl]-15,21-dimethyl-23-oxa-2,9,11,15,20,21,26-heptaazaheptacyclo[24.4.1.1^{1,28}.1^{13,17}.0^{2,10}.0^{3,8}.0^{18,22}]tritriaconta-3,5,7,9,13,17(33),18(22),19-octaene-12,16-dione] | 0.77 nM | 8.5 nM | 3.3 nM | 7.2 nM | 5.4 nM | 14 nM | 5 nM | 9.7 nM | 45 nM | 30 nM | 30 nM | 4.5 nM | 5.2 nM | 6.3 nM | 289 nM | 8.05 | 9.7 nM |  |  |  | GI50 (A-431; A-431 cells): 1980 nM
CCN1CCOc2c(cnn2C)-c2cc(cn(C)c2=O)C(=O)Nc2nc3ccccc3n2C(C)C1 (stereo not drawn) [Example A6, 10-Ethyl-5,12,26-trimethyl-7-oxa-4,5,10,13,20,22,26-heptaazapentacyclo[22.3.1.0^{2,6}.0^{13,21}.0^{14,19}]octacosa-1(28),2(6),3,14,16,18,20,24-octaene-23,27-dione] |  |  |  |  |  |  |  | > 5000 nM | > 5000 nM |  | > 5000 nM | 1870 nM | 1230 nM | 1530 nM | > 5000 nM | 5.78 | > 5000 nM | 204 nM | 1050 nM | 1780 nM | GI50 [1, 12]: 1310 nM; GI50 [1, 13]: 919 nM; GI50 [1, 14]: 1540 nM; GI50 [1, 15]: 795 nM; GI50 [1, 16]: 968 nM; GI50 (PC-9; Homo sapiens, PC-9, 72 h): 403 nM
Cn1ncc2c1OCCN(C1COC1)CCn1c(nc3ccccc31)NC(=O)c1cc-2c(=O)n(C)c1 [Example A5, 5,26-Dimethyl-10-(oxetan-3-yl)-7-oxa-4,5,10,13,20,22,26-heptaazapentacyclo[22.3.1.0^{2,6}.0^{13,21}.0^{14,19}]octacosa-1(28),2(6),3,14,16,18,20,24-octaene-23,27-dione] |  |  |  |  |  |  |  | > 5000 nM | > 5000 nM |  | > 5000 nM | 628 nM | 560 nM | 704 nM | > 5000 nM | 6.07 | > 5000 nM | 392 nM | 1160 nM | 2870 nM | GI50 [1, 12]: 454 nM; GI50 [1, 13]: 764 nM; GI50 [1, 14]: 859 nM; GI50 [1, 15]: 961 nM; GI50 [1, 16]: 747 nM; GI50 (PC-9; Homo sapiens, PC-9, 72 h): 482 nM
Cn1ncc2c1OCCN1CC3CCC(C3)(C1)n1c(nc3ccc(N4CCC(N5CCOCC5)C4)cc31)NC(=O)c1cc-2c(=O)n(C)c1 (single isomer, unassigned) [Example A104A] | 217 nM | 503 nM | 795 nM | 402 nM | 675 nM | 1000 nM | 473 nM | > 5000 nM | 4680 nM | 568 nM | > 5000 nM | 1390 nM | > 5000 nM | > 5000 nM | > 5000 nM | 5.89 | > 5000 nM |  |  | 1940 nM | 
C[C@@H]1CCCOc2c(cnn2C)-c2cc(cn(C)c2=O)C(=O)Nc2nc3ccc(N4CC(F)(CN(C)C)C4)cc3n2C1 [Example A58] |  |  |  |  |  |  |  | 22 nM | 26 nM |  | 19 nM | 4.9 nM | 15 nM | 16 nM | 220 nM | 8.04 | 34 nM | 2 nM | 28 nM | 1750 nM | GI50 [1, 12]: 29 nM; GI50 [1, 13]: 20 nM; GI50 [1, 14]: 37 nM; GI50 [1, 15]: 20 nM; GI50 [1, 16]: 20 nM; GI50 (PC-9; Homo sapiens, PC-9, 72 h): 325 nM
COCCN(C)c1ccc2nc3n(c2c1)C12CCC(CN(CCOc4c(cnn4C)-c4cc(cn(C)c4=O)C(=O)N3)C1)C2 (single isomer, unassigned) [Example A90B] | 0.75 nM | 3.9 nM | 4.6 nM | 8 nM | 15 nM | 14 nM | 3.2 nM | 9.3 nM | 54 nM | 46 nM | 31 nM | 3.5 nM | 4.9 nM | 5.9 nM | 825 nM | 8.20 | 10 nM |  |  |  | GI50 (A-431; A-431 cells): 3160 nM
